Series [1] deals with T1, solubilized γ-secretase (CHAPSO-extracted HeLa cell membranes) (Homo sapiens, UniProt P49768).
T1 construct: ID; NO; 9 su
As to the kind of experiment: In vitro γ-secretase assay with "solubilized γ-secretase" and SEQ. ID. NO. 9 substrate, ECL. In kind it is biochemical. Particulars: assaying for Aβ40 cleavage, FIG. 2A; read-out: Apparent Km value of solubilized γ-secretase for substrate. The method, then:
(§1) The ensuing supernatant solution provides “solubilized γ-secretase”.
(§2) In vitro assays measuring γ-secretase activity were performed using cell membranes or as “solubilized γ-secretase”. In one reaction, SEQ. ID. NO. […] ID. NO.

Series [2] has as its system solubilized γ-secretase (CHAPSO-extracted HeLa cell membranes). Described as above. Particulars: solubilized γ-secretase. Format: biochemical, human. On the procedure:
as §1, §2

The test system of series [3] is γ-secretase (HeLa cell membranes). Kind of series: In vitro γ-secretase assay with HeLa cell membranes and SEQ. ID. NO. 9 substrate in presence of detergent, ECL. Format: biochemical, human. Particulars: for Effect of detergent on in vitro γ-secretase cleavage of substrate: SEQ. ID. NO. 9 substrate. On the procedure: HeLa S3 cells from American Type Culture Collection (Rockville, Md.) were grown in bioreactors (Analytical Biological Services; Wilmington, Del.) in 90% DMEM, 10% fetal bovine serum, 2 mM glutamine and 100 μg/ml each of penicillin and streptomycin. Frozen HeLa S3 cells were resuspended in buffer A (50 mM MES, pH 6.0, 5 mM MgCl2, 5 mM CaCl2, 150 mM KCl) containing “complete” protease inhibitor cocktail (Boehringer Mannheim, Indianapolis, Ind.). The cells were broken by single-pass through a French Press (Spectronic Instruments, Rochester, N.Y.). Cell debris and nuclei were removed by centrifugation at 800×g for 10 minutes. The supernatant solutions were centrifuged at 100,000×g for 60 minutes. The ensuing pellets were resuspended in buffer A and the centrifugation was repeated. The final membrane pellets were resuspended in buffer A to yield a protein concentration of approximately 12 mg/ml. All procedures were performed at 4° C. The membranes were stored at −70° C.
In vitro assays measuring γ-secretase activity were performed using cell membranes or as “solubilized γ-secretase”. In one reaction, SEQ. ID. NO. 9 substrate (1.7 μM) was incubated with cell membranes (0.5 mg/ml) in presence of detergent in buffer B (50 mM PIPES, pH 7.0, 5 mM MgCl2, 5 mM CaCl2, 150 mM KCl) at 37° C. In another reaction, supernatant solution from CHAPSO-extracted HeLa cell membranes (“solubilized γ-secretase”) was incubated with SEQ. ID. NO. 9 substrate at 37° C. in the presence of detergent in buffer B. Generally, 0.25% CHAPSO was provided as the detergent. The reactions were stopped by adding RIPA (150 mM NaCl, 1.0% NP-40, 0.5% DOC, 0.1% SDS, 50 mM Tris HCl, pH 8.0).
The samples were centrifuged and the supernatant solutions were assayed for the Aβ peptides by ECL. The Aβ40- and Aβ42-related products from γ-secretase-mediated processing of SEQ. ID. NO.
SEQ. ID. NO. 9 substrate (1.7 μM) was incubated with cell membranes (0.5 mg/ml) in presence of CHAPSO, CHAPS or Triton X-100 (0, 0.125, 0.25, 0.5, or 1%) in buffer B at 37° C.

Series [4] deals with solubilized γ-secretase (supernatant solution from 1% CHAPSO-extracted HeLa S3 cell membranes). As to the kind of experiment: cell-based or functional assay.
The subject of series [5] is γ-secretase (HeLa cell membranes). Kind of series: In vitro γ-secretase assay with HeLa cell membranes and SEQ. ID. NO. 9 substrate in presence of detergent, ECL. In kind it is biochemical, human. Particulars: detergent 0.75%.
A further series concerns the target γ-secretase (Cricetulus griseus, UniProt G3HNF2). Kind of series: Radiolabeling pulse-chase of CHO/APP695 cells, 4G8 immunoprecipitation, SDS-PAGE. Particulars: 1 μM, data not shown. Format: cell-based, Chinese hamster. The method, then: The effect of a γ-secretase inhibitor on γ-secretase activity was measured using Chinese hamster ovary fibroblasts that stably express APP695 (CHO/APP695, provided by Dr. S. Sisodia (University of Chicago, Chicago, Ill.)). CHO/APP695 were grown in 90% DMEM, 10% fetal bovine serum, 2 mM glutamine, 100 μg/ml each of penicillin and streptomycin, and 0.2 mg/ml G418. CHO/APP695 cells were seeded in 96-well dishes at 2×10^4 cells/well. Aβ-peptide formation was detected by either ECL or using radiolabeling.
For the radiolabeling experiments, CHO/APP695 cells (in 100 mm dishes) were grown to 70% confluency in complete media. Afterwards, these cells were cultured±1 μM L-685,458 for 24 hours, switched to Met-free medium (±1 μM L-685,458) for 20 minutes, pulsed with 1 mCi/ml of S^35-Met (Amersham Life Sciences, Inc, Arlington Heights, Ill.) in Met-free medium (±1 μM L-685,458) for 2 hours, and subsequently chased in complete medium (±1 μM L-685,458) for 45 minutes. The cells were washed with Hanks balanced salt solution and lysed with 1 ml of RIPA. The insoluble residue was removed by centrifugation. The 4G8 antibody (final concentration, 2 μg/ml) was added to the supernatant fractions. The samples were gently rotated overnight at 4° C. Protein G-agarose beads (Pharmacia Biotech, Piscataway, N.J.) were added the next day, the samples were rotated for an additional 2 hours and then centrifuged. […]

Series [6] deals with γ-secretase (HeLa cell membranes). As to the kind of experiment: Extraction of γ-secretase activity from HeLa cell membranes with CHAPSO detergent. Format: biochemical, human. The method, then:
HeLa S3 cells from American Type Culture Collection (Rockville, Md.) were grown in bioreactors (Analytical Biological Services; Wilmington, Del.) in 90% DMEM, 10% fetal bovine serum, 2 mM glutamine and 100 μg/ml each of penicillin and streptomycin. […] The cells were broken by single-pass through a French Press (Spectronic Instruments, Rochester, N.Y.). Cell debris and nuclei were removed by centrifugation at 800×g for 10 minutes. The supernatant solutions were centrifuged at 100,000×g for 60 minutes. The ensuing pellets were resuspended in buffer A and the centrifugation was repeated. The final membrane pellets were resuspended in buffer A to yield a protein concentration of approximately 12 mg/ml. All procedures were performed at 4° C. The membranes were stored at −70° C. […] The supernatant solutions (solubilized fractions) and the pellets (membrane fractions) were then assayed for γ-secretase activity with the SEQ. ID. NO. 9 substrate. […] The ensuing supernatant solution provides “solubilized γ-secretase”. […] In vitro assays measuring γ-secretase activity were performed using cell membranes or as “solubilized γ-secretase”. In one reaction, SEQ. ID. […] ID. NO. 9 substrate at 37° C. in the presence of detergent in buffer B.

“SEQ. ID. NO. 9 substrate: γ-secretase substrate: fusion protein of N-terminal Met, APP597-695 (β-CTF domain) and C-terminal Flag tag DYKDDDDK”: the Km in series [1] was around 1 µM. Also, the Aβ42/Aβ40 cleavage ratio entry in series [2] and in series [3] (intact membranes) was “approximately 0.1” each time.
In series [4], pepstatin (peptide) registered an IC50 for inhibiting the generation of the Aβ40 terminus (in vitro γ-secretase assay, ECL) of 4 µM and an IC50 for inhibiting the generation of the Aβ42 terminus (in vitro γ-secretase assay, ECL) of 5.9 µM.
Regarding `C[C@H](CCC(=O)NCCC[N+](C)(C)CCCS(=O)(=O)[O-])[C@H]1CC[C@H]2[C@@H]3[C@H](O)C[C@@H]4C[C@H](O)CC[C@]4(C)[C@H]3C[C@H](O)[C@]12C` [CHAPS], the “M-Aβ 40 production” value in series [5] came out at 0.04 ECL signal × 10^−6; in series [3] (detergent 0.125%) it was 0.03 ECL signal × 10^−6; in series [3] (detergent 0.25%), 3.21 ECL signal × 10^−6; in series [3] (detergent 0.5%) it was 0.27 ECL signal × 10^−6; in series [3] (detergent 1%), 0.03 ECL signal × 10^−6. Moreover, the “Effect of detergent on in vitro γ-secretase cleavage of substrate” value (from here on “Effect of detergent”) in series [3] (HeLa cell membranes) was “promotes cleavage at the γ-secretase scissile bond”.
Regarding `CC(C)C[C@H](NC(=O)[C@H](Cc1ccccc1)C[C@@H](O)[C@H](Cc1ccccc1)NC(=O)OC(C)(C)C)C(=O)N[C@@H](Cc1ccccc1)C(N)=O` [L-685,458], the “Intracellular accumulation of APP fragments (α-CTF, β-CTF)” value on γ-secretase was “intracellular accumulation of APP immunoreactive fragments that co-migrate with α-CTF and β-CTF”.
As for Triton X-100, the “M-Aβ 40 production” value in series [5], in series [3] (detergent 0.125%), in series [3] (detergent 0.25%), in series [3] (detergent 0.5%) and in series [3] (detergent 1%) was 0.02 ECL signal × 10^−6 each time. In series [3] (HeLa cell membranes), the “Effect of detergent” value was “fails to potentiate in vitro γ-secretase activity”.
Turning to `C[C@H](CCC(=O)NCCC[N+](C)(C)CC(O)CS(=O)(=O)[O-])[C@H]1CC[C@H]2[C@@H]3[C@H](O)C[C@@H]4C[C@H](O)CC[C@]4(C)[C@H]3C[C@H](O)[C@]12C` (some centres unmarked) [CHAPSO], the “M-Aβ 40 production” value in series [5] is reported as 0.07 ECL signal × 10^−6; in series [3] (detergent 0.125%), 2.2 ECL signal × 10^−6; in series [3] (detergent 0.25%), 8.74 ECL signal × 10^−6; in series [3] (detergent 0.5%), 1.22 ECL signal × 10^−6; in series [3] (detergent 1%), 0.03 ECL signal × 10^−6. Further, the “% of total γ-secretase activity in Membranes fraction” value is given as 97% in series [6] (CHAPSO 0.25%), 65% in series [6] (CHAPSO 0.50%), 51% in series [6] (CHAPSO 1.00%) and 50% in series [6] (CHAPSO 2.0%). Further, the “% of total γ-secretase activity in Solubilized fraction” value in series [6] (CHAPSO 0.25%) is listed as 3%; in series [6] (CHAPSO 0.50%), 35%; in series [6] (CHAPSO 2.0%), 50%. Also, the “Detergent concentration giving optimal γ-secretase activity” value in series [3] (HeLa cell membranes) is reported as 0.25%. Also, the “Effect of detergent” value in series [3] (HeLa cell membranes) is on record as “promotes cleavage at the γ-secretase scissile bond”.

Values taken from US20030215896A1, “Gamma secretase substrates and in vitro assays” (priority 2003, published 2003).
